According to patent US8293734B2, “Nitroimidazooxazine and nitroimidazooxazole analogues and their uses” (priority 2009, dated 2012):
≈ marks a conversion by molar mass, not a printed value.

Tests used:
[1] = Stability to human liver microsomes; type: in vitro ADME; details: 1 μM compound, 60 min, 37° C., 0.5 mg/mL protein
Procedure: (§1) (a) Stability of the compounds to human and mouse microsomes. Test compounds (1 μM) were incubated at 37° C. with pooled human or CD-1 mouse liver microsome preparations (0.5 mg/mL final protein concentration) and an NADPH regenerating system (MgCl2, 3.3 mM; G6P, 3.3 mM; G6PD, 0.4 U/mL; NADP+, 1.3 mM) in phosphate buffer (75 mM, pH 7.4), with a final volume of 200 μL. The compounds were dissolved in DMSO such that the final DMSO concentration was 0.5%. Reactions were stopped at 0 and 60 min by the addition of MeCN (100 μL) containing 0.2 μM metoprolol as an internal standard. Samples were diluted 10× and centrifuged prior to analysis by LC-MS/MS using electrospray ionization and SRM monitoring using a gradient LC method. LC peak areas were integrated and expressed as analyte/IS peak area ratios (PAR), and a mean value for each time point was calculated from the duplicates. The percent remaining value was calculated as: % remaining=100×(Mean PART60/Mean PART0).

[2] = system: Axenically grown L. donovani amastigotes (MHOM-ET-67/L82); assay: Axenic Leishmania donovani assay; type: cell-based; details: 70 h incubation, read-out: IC50 L. donovani axen
Procedure: (§2) (c) Antiprotozoal screening. Compounds were evaluated for their activities against both Trypanosoma cruzi amastigotes and Leishmania donovani amastigotes (free or encapsulated in macrophages), according to the following protocols:
(ii) Axenic Leishmania donovani assay. Axenically grown L. donovani amastigotes (MHOM-ET-67/L82) from a healthy culture in log phase were seeded at a density of 1×10^6/mL medium (SM, pH 5.4 plus 10% heat inactivated fetal calf serum) in 96-well microtitre plates (Costar™) and incubated at 37° C. (5% CO2) for 70 h in either medium alone or in the presence of serial (3-fold) dilutions of test compounds (initially prepared as 10 mg/mL stock solutions in DMSO and diluted into medium). Miltefosin was employed as a standard in each assay. After incubation, Resazurin fluorescent dye was added to each well, and incubation was continued for an additional 2 h. The IC50 values were determined from measurements of the fluorescence data.

[3] = Stability to mouse liver microsomes; type: in vitro ADME, CD-1 mouse; details: 1 μM compound, 60 min, 37° C., 0.5 mg/mL protein
Procedure: as §1

VERO cells (CCL-81) = assay: Mammalian cell cytotoxicity assay (tetrazolium dye); type: cell-based; details: Chlorocebus sabaeus, 72 h exposure, read-out: IC50 VERO
Procedure: (b) Mammalian cell cytotoxicity assay. This was assessed against VERO cells (CCL-81, American Type Culture Collection) in a 72 h exposure, using a tetrazolium dye assay (Falzari et al., 2005).

[4] = system: Trypanosoma cruzi amastigotes (Tulahuen C2C4 strain); assay: Trypanosoma cruzi assay in infected L-6 cells; type: cell-based; details: L6, 96 h incubation, read-out: IC50 T. cruzi
Procedure: as §2
(i) Trypanosoma cruzi assay. L-6 cells (2×10^3) in medium (100 μL of RPMI 1640 supplemented with 2 mM L-glutamine plus 10% heat inactivated fetal calf serum) were seeded in 96-well microtitre plates (Costar™) and incubated at 37° C. (5% CO2) for 1d. A suspension (50 μL) of Trypanosoma cruzi trypomastigotes (5×10^3 of Tulahuen C2C4 strain, containing the β-galactosidase gene) was added, and the cells were incubated at 37° C. (5% CO2) for a further 48 h to establish the infection. The medium was removed and replaced by fresh medium and the infected cells were then incubated at 37° C. (5% CO2) for 96 h in either medium alone or in the presence of serial (3-fold) dilutions of test compounds (initially prepared as 10 mg/mL stock solutions in DMSO and diluted into medium). Benznidazole was employed as a standard in each assay. Following incubation, chlorophenol red glycoside (100 mM) in 0.1% Nonidet P40/PBS (50 μL) was added, and (after 6 h) the absorbance at 540 nm was measured and used to calculate the IC50 values.

[5] = system: L. donovani amastigotes (MHOM-ET-67/L82) in mouse macrophages; assay: Leishmania donovani infected macrophage assay; type: cell-based; details: 96 h incubation, read-out: IC50 L. donovani macro
Procedure: as §2
(iii) Leishmania donovani infected macrophage assay. Freshly harvested mouse macrophages in medium (RPMI 1640 plus 10% heat inactivated fetal calf serum) were incubated at 37° C. (5% CO2) for 24 h and then infected (1:3 macrophages to amastigotes) with an axenic L. donovani amastigote culture (MHOM-ET-67/L82) in medium (SM, pH 5.4 plus 10% heat inactivated fetal calf serum). The infected macrophages were seeded at a density of 1.2×10^6/mL (by diluting in RPMI+10% FCS) in 16-well slides (Lab-tek™) and incubated at 37° C. (5% CO2) for 24 h. The medium was removed and replaced by fresh medium (RPMI 1640+10% FCS), and this was repeated following mixing. The infected macrophages were then incubated at 37° C. (5% CO2) for 96 h in either medium alone or in the presence of serial (3-fold) dilutions of test compounds (initially prepared as 10 mg/mL stock solutions in DMSO and diluted into medium). Miltefosin was employed as a standard in each assay. […], the slides were fixed (5 min in 100% MeOH) and stained (10% Giemsa, 10 min). The ratio of infected to uninfected macrophages was determined by microscopic examination, and the IC50 values were then calculated by linear regression analysis.

## O=[N+]([O-])c1cn2c(n1)OCC(COCc1ccc(OC(F)(F)F)cc1)C2 (stereo not shown) [Compound 72, 2-nitro-6-({[4-(trifluoromethoxy)benzyl]oxy}methyl)-6,7-dihydro-5H-imidazo[2,1-b][1,3]oxazine]
other
  melting point: 92 to 93 °C
[1]
  Microsomes (% remaining) Human: 71%
[2]
  IC50: 0.089 µg/mL (≈ 0.238 µM)
[3]
  Microsomes (% remaining) Mouse: 41%
VERO cells (CCL-81)
  IC50: 46 µM
[4]
  IC50: 0.62 µg/mL (≈ 1.66 µM)
[5]
  IC50: 0.55 µg/mL (≈ 1.47 µM)
